Data from patent US11076595B2, “1-(n,n-disubstituted carbamoyl) 4-(substituted sulfonyl)triazolin-5-one derivative, 4-(n,n-disubstituted carbamoyl) 1-(substituted sulfonyl)triazolin-5-one derivative, and herbicide containing said derivative as active ingredient” (HOKKO CHEMICAL INDUSTRY CO., LTD., priority 2017, dated 2021).

Experiments:
Assay type in all cases: in vivo
[1] = test system: Scirpus juncoides; experiment: Test Example 11: herbicidal effect test by soil treatment in paddy field; conditions: 120 g/10a active ingredient, 14 days after treatment
Excerpt: (§1) A Wagner pot having an area of 1/10000 are was filled with paddy field soil and after adding water, a chemical fertilizer (N:P:K=17:17:17) was mixed, followed by puddling. Thereafter, 30 grains of each of Echinochloa crus-galli, broad-leaved weed (Lindernia pyxidaria, Monochoria vaginalis) and Scirpus juncoides seeds were sown to a depth of 0 to 1 cm. Immediately after the sowing, the pot was flooded, and the depth of water was kept at about 3 cm. The pot was subsequently managed in a glass greenhouse. Just after that, an emulsifiable concentrate prepared according to Formulation Example 15 by using the compound shown in Table 9 below was diluted with water, and a predetermined amount of the water-diluted formulation was added dropwise. The application rate of the active ingredient, by conversion, corresponded to 120 g per 10 are.
(§2) This test was performed with two replications per one formulation concentration plot, and 14 days after the formulation treatments, the weed suppression rate (%) was determined according to the following equation (Math. 2). Weed suppression rate (%)=(1−average dry weight (g) of plants in treated plots/average dry weight (g) of plants in untreated plots)×100 [Math. 2]

[2] = test system: Monochoria vaginalis; experiment: as above; conditions: 120 g/10a active ingredient, 14 days after treatment
Excerpt: as §1, §2

[3] = test system: Lindernia pyxidaria; experiment: as above; conditions: 120 g/10a active ingredient, 14 days after treatment
Excerpt: as §1, §2

[4] = test system: Echinochloa crus-galli; experiment: as above; conditions: 120 g/10a active ingredient, 14 days after treatment
Excerpt: as §1, §2

[5] = test system: Scirpus juncoides; experiment: Test Example 12: herbicidal effect test by treatment during growing period in paddy field; conditions: 120 g/10a; treatment seven days after sowing in flooded paddy pot; assessed 14 days after treatment
Procedure: as §2
as §1, with “Seven Days” for “Just”, “sowing,” for “that,”, “10” for “9”, “are. The test was performed with two replications per one formulation concentration plot, and 14 days after the formulation treatments, the weed suppression rate (%) was determined according to the equation (Math. 2).” for “are.”

[6] = test system: Monochoria vaginalis; experiment: as above; conditions: 120 g/10a; treatment seven days after sowing in flooded paddy pot; assessed 14 days after treatment
Procedure: as §2
as §1, with “Seven Days” for “Just”, “sowing,” for “that,”, “10” for “9”, “are. The test was performed with two replications per one formulation concentration plot, and 14 days after the formulation treatments, the weed suppression rate (%) was determined according to the equation (Math. 2).” for “are.”

[7] = test system: Lindernia pyxidaria; experiment: as above; conditions: 120 g/10a; treatment seven days after sowing in flooded paddy pot; assessed 14 days after treatment
Procedure: as §2
as §1, with “Seven Days” for “Just”, “sowing,” for “that,”, “10” for “9”, “are. The test was performed with two replications per one formulation concentration plot, and 14 days after the formulation treatments, the weed suppression rate (%) was determined according to the equation (Math. 2).” for “are.”

[8] = test system: Echinochloa crus-galli; experiment: as above; conditions: 120 g/10a; treatment seven days after sowing in flooded paddy pot; assessed 14 days after treatment
Procedure: as §2
as §1, with “Seven Days” for “Just”, “sowing,” for “that,”, “10” for “9”, “are. The test was performed with two replications per one formulation concentration plot, and 14 days after the formulation treatments, the weed suppression rate (%) was determined according to the equation (Math. 2).” for “are.”

Row | SMILES | Weed suppression rate (%) Scirpus juncoides [1] [%] | Weed suppression rate (%) Monochoria vaginalis [2] [%] | Weed suppression rate (%) Lindemia pyxidaria [3] [%] | Weed suppression rate (%) Echinochloa crus-galli [4] [%] | Weed suppression rate (%) Scirpus juncoides [5] [%] | Weed suppression rate (%) Monochoria vaginalis [6] [%] | Weed suppression rate (%) Lindemia pyxidaria [7] [%] | Weed suppression rate (%) Echinochloa crus-galli [8] [%]
1 | CC(C)N(C(=O)n1cnn(S(=O)(=O)N(C)C)c1=O)c1ccc(C(F)(F)F)cc1Cl [Compound 11-1084] | 90 | 80 | 80 | 90 | 90 | 80 | 80 | 90
2 | CN(C(=O)n1cnn(S(=O)(=O)c2ccc(C(C)(C)C)cc2)c1=O)c1ccc(F)cc1F [Compound 11-1141] | – | – | – | – | 60 | 80 | 70 | 90
3 | CC(C)N(C(=O)n1cnn(S(=O)(=O)c2c(F)c(F)c(F)c(F)c2F)c1=O)c1ccccc1F [Compound 11-801] | 90 | 90 | 90 | 90 | 60 | 80 | 60 | 90
4 | CC(C)N(C(=O)n1cnn(S(=O)(=O)N(C)C)c1=O)c1ccc(Cl)cc1Br [Compound 11-1076] | 60 | 60 | 60 | 90 | 60 | 30 | 60 | 90
5 | CC(C)N(C(=O)n1cnn(S(=O)(=O)C2CC2)c1=O)c1cccc(F)c1 [Compound 11-161] | 90 | 70 | 100 | 100 | 90 | 80 | 80 | 90
6 | CN(C(=O)n1cnn(S(=O)(=O)C2CC2)c1=O)c1ccc(F)cc1F [Compound 11-140] | 80 | 70 | 70 | 90 | 100 | 70 | 70 | 100
7 | CC(C)N(Cc1ccc(F)cc1F)C(=O)n1cnn(S(=O)(=O)N(C)C)c1=O [Compound 11-1088] | 90 | 80 | 80 | 90 | 90 | 80 | 80 | 90
8 | CC(C)N(C(=O)n1cnn(S(=O)(=O)c2ccccc2Cl)c1=O)c1ccc(F)c(F)c1F [Compound 11-515] | 100 | 80 | 90 | 100 | 100 | 100 | 70 | 100
9 | Cc1ccc(S(=O)(=O)n2ncn(C(=O)N(C)c3ccc(F)cc3F)c2=O)cc1 [Compound 11-1131] | 100 | 70 | 100 | 100 | 80 | 90 | 70 | 100
10 | Cc1ccc(S(=O)(=O)n2ncn(C(=O)N(c3ccc(Cl)cc3F)C(C)C)c2=O)cc1 [Compound 11-645] | 90 | 90 | 90 | 100 | 60 | 90 | 90 | 60
11 | Cc1cc(C)c(S(=O)(=O)n2ncn(C(=O)N(c3c(F)c(F)cc(F)c3F)C(C)C)c2=O)c(C)c1 [Compound 11-868] | 100 | 70 | 100 | 100 | 60 | 80 | 90 | 90
12 | Cc1cc(C)c(S(=O)(=O)n2ncn(C(=O)N(c3ccccc3F)C(C)C)c2=O)c(C)c1 [Compound 11-853] | 90 | 80 | 90 | 100 | 90 | 80 | 80 | 90
13 | Cc1cc(F)ccc1N(C(=O)n1cnn(S(=O)(=O)c2cccc(Cl)c2)c1=O)C(C)C [Compound 11-563] | 100 | 90 | 100 | 100 | 100 | 80 | 80 | 100
14 | CC(C)N(C(=O)n1cnn(S(=O)(=O)c2cccc(F)c2)c1=O)c1cccc(F)c1F [Compound 11-437] | 80 | 80 | 80 | 100 | 100 | 100 | 100 | 100
15 | CC(C)N(C(=O)n1cnn(S(C)(=O)=O)c1=O)c1ccc(Cl)cc1F [Compound 11-20] | 80 | 40 | 40 | 70 | 60 | 60 | 40 | 70
16 | CC(C)N(C(=O)n1cnn(S(=O)(=O)c2ccc(C(C)(C)C)cc2)c1=O)c1ccc(F)cc1Cl [Compound 11-689] | 70 | 70 | 90 | 90 | 90 | 80 | 70 | 60
17 | CN(C(=O)n1cnn(S(=O)(=O)c2ccc(Cl)cc2)c1=O)c1ccc(F)cc1F [Compound 11-1134] | – | – | – | – | 100 | 70 | 70 | 80
18 | Cc1ccc(S(=O)(=O)n2ncn(C(=O)N(c3ccc(Br)cc3Cl)C(C)C)c2=O)cc1 [Compound 11-648] | – | – | – | – | 90 | 70 | 60 | 60
19 | CC(C)N(C(=O)n1cnn(S(=O)(=O)N(C)C)c1=O)c1c(F)c(F)cc(F)c1F [Compound 11-1069] | – | – | – | – | 60 | 70 | 70 | 90
